Ki data for 10 compounds are collected here from patent US20050124622A1, “Compounds and methods for the treatment of pain” (priority 1999, published 2005).

The first test deals with T1, NMDA receptor glycine site (Rattus norvegicus, UniProt P35439).
T1 construct: brain membranes bearing the receptor; tissue Analytical Biological Services Inc; host or cells: rat brain (cerebral cortex and hippocampus) membranes
Briefly: Test A: Inhibition of binding of [3H]-MDL105,519 to brain membranes.
Settings: not given
The source says:
Test A: Inhibition of Binding of [^3H]-MDL105,519:
Binding of compounds to the NMDA receptor glycine site may be assessed by measuring the ability of test compounds to inhibit the binding of tritiated MDL105,519 to brain membranes bearing the receptor.
Briefly, fresh brain tissue including cerebral cortex and hippocampus from male Sprague Dawley rats was homogenized in 0.32 M sucrose and centrifuged at low speed to separate cellular membranes from other cellular components. The membranes were then washed 3 times using deionized water, followed by treatment with 0.04% Triton X-100. Finally, membranes were washed six times in 50 mM Tris citrate buffer, pH 7.4, and frozen at −80° C. until use.
[^3H]MDL105,519 (72 Ci/mmol) was purchased from Amersham. Cold MDL105,519 was purchased from Sigma/RBI. […] On the day of the experiment, brain membranes were thawed at room temperature and suspended in 50 mM tris acetate buffer, pH 7.4 (“TAB”). Seventy-five micro grams per milliliter protein (by using the BioRad dye) were used for competition binding. The experiments were carried out using 96-well plates. […] Non specific binding was determined by using 100 μM of unlabeled MDL105,519. […] After incubation, unbound [^3H]MDL105,519 was removed by filtration onto GF/B Unifilter plates using a Packard harvester. Filters were washed four times with ice cold TAB (total of 1.2 mL buffer). The plates were dried overnight at room temperature and bound radioactivity was measured on a Packard TopCount after the addition of 45 μL per well of the MICROSCINT O.
Human Brain Membranes: Human brain membranes were obtained from Analytical Biological Services Inc., and assays were performed as described for rat membranes.
Data analysis: Data was analyzed using a Microsoft Excel spreadsheet and GraphPad Prizm software and potency of compounds is expressed as the Ki (nM).
In general, Ki refers to the dissociation constant of the complex between target and ligand, obtained from inhibition or displacement. In the case of `O=c1c2ccc(Cl)cc2[nH]c2c(O)nn(Cc3ccc(C=NNc4ccccn4)cc3)c(=O)c12` [Ex. 9, 2-{[4-[2-Aza-2-(2-pyridylamino)vinyl]phenyl}methyl)-7-chloro-4-hydroxy-2,5-dihydropyridazino[4,5-b]quinoline-1,10-dione], the affinity, expressed as Ki, was 159 nM.
Still for that read-out and setting: then `O=c1c2ccc(Cl)cc2[nH]c2c(O)nn(Cc3ccc(-c4nnco4)cc3)c(=O)c12` [Ex. 1, 7-Chloro-4-hydroxy-2-(4-[1,3,4]oxadiazol-2-yl-benzyl)-1,2,5,10-tetrahydropyridazino[4,5-b]quinoline-1,10-dione], with 95.8 nM; and `Cc1ncc(CO)c(Cn2nc(O)c3[nH]c4cc(Cl)ccc4c(=O)c3c2=O)c1O` [Ex. 3, 7-Chloro-4-hydroxy-2-[3-hydroxy-5(hydroxymethyl)-2-methyl(4-pyridyl)]methyl-1,2,5,10-tetrahydropyridazino[4,5-b]quinoline-1,10-dione Methanesulfonate], with 1150 nM.
The same measure, in the same setting: then `O=C(NN=Cc1ccc(Cn2nc(O)c3[nH]c4cc(Cl)ccc4c(=O)c3c2=O)cc1)c1ccccc1` [Ex. 10], with 91 nM.
Still for that read-out and setting: the figure for `Cc1cc(C)c(S(=O)(=O)NN=Cc2ccc(Cn3nc(O)c4[nH]c5cc(Cl)ccc5c(=O)c4c3=O)cc2)c(C)c1` [Ex. 11, 2-{[4-(2-Aza-2-{[(2,4,6-trimethylphenyl)sulfonyl]amino}vinyl)phenyl]methyl}-7-chloro-4-hydroxy-2,5-dihydropyridazino[4,5-b]quinoline-1,10-dione] is 227 nM.
Compound `O=Cc1ccc(Cn2nc(O)c3[nH]c4cc(Cl)ccc4c(=O)c3c2=O)cc1` [Ex. 7, 4-[(7-Chloro-4-hydroxy-1,10-dioxo-2.5-dihydropyridazino[4,5-b]quinolin-2-yl)methyl]benzaldehyde] showed a Ki of 173 nM.
The compound `CC(C)(C)OC(=O)NN=Cc1ccc(Cn2nc(O)c3[nH]c4cc(Cl)ccc4c(=O)c3c2=O)cc1` [Ex. 8] came in with a Ki of 124 nM.
The compound `O=c1c2ccc(Cl)cc2[nH]c2c(O)nn(CC3CCCO3)c(=O)c12` (racemic) [Ex. 4, 7-Chloro-4-hydroxy-2-(tetrahydro-furan-2-ylmethyl)-1,2,5,10-tetrahydropyridazino[4,5-b]quinoline-1,10-dione] had a Ki of 449 nM.

Still in this test, the particulars now being: inhibition of 1.2 nM [3H]MDL105,519 binding to brain membranes, 30 minutes at room temperature.
On to `COc1ccc(-c2nnc(Cn3nc(O)c4[nH]c5cc(Cl)ccc5c(=O)c4c3=O)o2)cc1` [Ex. 5, 7-Chloro-4-hydroxy-2-[5-(4-methoxy-phenyl)-[1,3,4]oxadiazol-2-ylmethyl]-1,2,5,5,10-tetrahydropyridazino[4,5-b]quinoline-1,10-dione], for which the affinity, expressed as Ki, was 146 nM.
On the same count and under the same terms, then `O=c1c2ccc(Cl)cc2[nH]c2c(O)nn(Cc3cccc(-c4nnn[nH]4)c3)c(=O)c12` [Ex. 2, 7-Chloro-4-hydroxy-2-[3-(1H-tetrazol-5-yl)-benzyl]-1,2,5,10-tetrahydropyridazino[4.5-b]quinoline-1,10-dione.], with 42.7 nM.
